Experimental data as given in PubChem BioAssay (NCI).
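Assay format: 96-well plates, 48-hour exposure. Abbreviation: GI50, concentration required for 50% inhibition of growth. The concentration for full growth arrest is given as TGI.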

Columns and labels:
Test in all cases: inhibition of tumour cell growth, NCI panel, 48 h
MDA-MB-435 = system: MDA-MB-435
OVCAR-8 ovarian = system: OVCAR-8 ovarian
HL-60(TB) leukemia = system: HL-60(TB) leukemia
HS 578T breast = system: HS 578T breast
UO-31 renal = system: UO-31 renal
K-562 leukemia = system: K-562 leukemia
SF-539 CNS = system: SF-539 CNS
SR leukemia = system: SR leukemia

| SMILES | GI50 (MDA-MB-435) [µM] | TGI (MDA-MB-435) [µM] | GI50 (OVCAR-8 ovarian) [µM] | TGI (OVCAR-8 ovarian) [µM] | GI50 (HL-60(TB) leukemia) [µM] | TGI (HL-60(TB) leukemia) [µM] | GI50 (HS 578T breast) [µM] | TGI (HS 578T breast) [µM] | GI50 (UO-31 renal) [µM] | TGI (UO-31 renal) [µM] | GI50 (K-562 leukemia) [µM] | TGI (K-562 leukemia) [µM] | GI50 (SF-539 CNS) [µM] | TGI (SF-539 CNS) [µM] | GI50 (SR leukemia) [µM] | TGI (SR leukemia) [µM] |
| --- | --- | --- | --- | --- | --- | --- | --- | --- | --- | --- | --- | --- | --- | --- | --- | --- |
| CCN(c1cc(C#CCN2CCOCC2)cc(C(=O)NCc2c(C)cc(C)[nH]c2=O)c1C)C1CCC(N(C)CCOC)CC1 (configuration not stated) | > 100 | > 100 | > 100 | > 100 | > 100 | > 100 | > 100 | > 100 | > 100 | > 100 | > 100 | > 100 | > 100 | > 100 | 27 | > 100 |
| Cc1coc2c1C(OC(=O)C(C)C)C1(C)C(C)CCC(O)C1C2=O (configuration not stated) |  | > 100 |  | > 100 |  | > 100 |  | > 100 |  | > 100 |  | > 100 |  | > 100 |  | > 100 |
| O=C(CCCCC(=O)N/N=C\c1ccccc1O)N/N=C\c1ccccc1O |  |  | 2.6 | > 100 | 3.07 | > 100 | 15.2 | > 100 |  |  | 3.92 | > 100 | 3.66 | > 100 | 2.84 | > 100 |
| O=C(O)/C(=C\c1ccncc1)c1cccc2ccccc12 |  | > 100 |  | > 100 |  | > 100 |  | > 100 |  |  |  | > 100 |  | > 100 |  | > 100 |
| Oc1ccc(N=Nc2ccccn2)c(O)c1 | 0.835 | > 100 | 1.63 | > 100 | 0.412 | 8.75 | 59.6 | > 100 | 0.479 | > 100 | 0.582 | > 100 | 0.999 | 61.8 | 0.723 | > 100 |
| O=Nc1c(-c2c(O)[nH]c3ccc(Br)cc23)[nH]c2ccccc12 | 5.47 | > 100 | 4.29 | > 100 | 3.38 | 6.22 | 3.03 | 10.2 | 2.81 | > 100 | 2 | 4.87 | 2.62 | 7.47 | 2.12 | 5.62 |
| CS(=O)(=O)N(c1cc(-c2ccc3ncnc(Nc4cccc(Cl)c4)c3c2)cnc1Cl)S(C)(=O)=O | 0.443 | 4.07 | 1.58 | > 100 | 0.284 | 6.48 | 0.236 | 6.08 | 0.232 | 2.52 | 1.23 | 45.1 | 0.533 | 4.33 | 0.696 | 6.68 |
| CC(=O)c1cc(O)c2ccccc2c1O | 14.5 | 30.7 | 20.2 | 38.6 | 25.5 | 62.5 | 39.7 | > 100 | 12.1 | 25.5 | 23.1 | 67.6 | 22.5 | 40.6 | 28 | > 100 |
